# Read-outs that look alike come from different tables or passages of the source.
# Test: Multi-component pharmacokinetic study of GQD, GQD-GC and single herb extracts in rats (plasma, LC/MS/MS)
# Assay type: in vivo, Sprague-Dawley rats
# Description: Male Sprague-Dawley rats (220–250 g) were used for PK study, and the details were described in Supplemental Data. All procedures were in accordance with the National Institutes of Health Guide for the Care and Use of Laboratory Animals.
# For PK study of GQD and its component herbs, rats were randomly divided into six groups (n = 10 for each group) before oral administration.
# All blood samples were immediately centrifuged at 6,000 rpm (4°C) for 20 min to obtain plasma. The plasma samples were stored at −80°C.
# A Finnigan TSQ Quantum triple quadrupole mass spectrometer was connected to a Surveyor HPLC via ESI interface (ThermoFisher). High purity nitrogen was used as the sheath and auxiliary gas; Ultra-high purity argon was used as the collision gas (1.5 mTorr). Q1 and Q3 quadrupoles were set at unit resolution. […] The column temperature was 40°C. The mobile phase consisted of acetonitrile containing 2% (v/v) methanol (A) and water containing 0.1% (v/v) formic acid (B). […] An aliquot of 5 μL was injected for analysis. UV spectra were obtained by scanning from 200 to 400 nm. The mass spectrometer was operated in the (+)-ESI mode. The optimized parameters were as follows: sheath gas (N2), 50 arb; auxiliary gas (N2), 5 arb; spray voltage, 4.0 kV; capillary temperature, 330°C; collision energy, see Table S1. Analytes were detected in the selected reaction monitoring (SRM) mode. Data were processed by Xcalibur 2.0.7 software (ThermoFisher).
# LC/MS/MS calibration and quantitation data were processed with Xcalibur 2.0.7 software (ThermoFisher). The maximal plasma concentrations (Cmax) and their time of occurrence (Tmax) were obtained directly from the measured data. Other pharmacokinetic parameters were calculated by non-compartment or compartment models using WinNonlin® software (v6.1, Pharsight). Unless otherwise stated, results were expressed as the mean ± SD. Statistical significance in differences of the means was determined by Student's t–test, with a significance level of P < 0.05.
# Herbal materials and extracts.
# The four component herbs, Puerariae Lobatae Radix (Ge-Gen, GG), Scutellariae Radix (Huang-Qin, HQ), Coptidis Rhizoma (Huang-Lian, HL), and Glycyrrhizae Radix et Rhizoma Praeparata cum Melle (Gan-Cao, GC) were purchased from Tianheng Pharmacy. GQD was prepared by decocting the four component herbs […]
# pre-extraction of Ge-Gen using 200 mL of water for 0.5 h. The decoctions were combined, filtered, and concentrated in vacuum at 50 °C. GQD-GC was prepared using the same procedure, except that Gan-Cao was removed from the formula. Final concentration of the GQD-GC extract was equivalent to 1.0 g of the crude drugs per mL. For single herb extracts, the herbs were decocted in 8-fold volume of water for […]
# Final concentrations of the extracts were 1.0 g/mL for Ge-Gen, and 0.5 g/mL for Huang-Qin, Huang-Lian and […]
# For pharmacokinetic study, Male Sprague-Dawley rats (220-250 g) were obtained from the Laboratory Animal Center of Peking University Health Science Center. The […]
# The rats had free access to tap water and soy-free custom diet (Ke’ao Xieli Co.). All procedures were in accordance with the National Institutes of Health Guide for the Care and Use of Laboratory Animals […]
# Experimental details for the PK study
# 1. Preparation of internal standard solution, calibration standard solutions, and quality control solutions […]
# internal standard solution. Reference standard compounds were dissolved in the internal standard solution to prepare individual stock solutions (1.0 mg/mL). These […]
# each compound. The standard solution was then serially diluted to obtain calibration […]
# Quality control stock solutions were prepared at three concentration levels as high QC (HQC), middle QC (MQC), and low QC (LQC), based on linear ranges of the analytes.
# 2.1. Sample preparation for pharmacokinetic study
# The calibration standard and quality control solutions for pharmacokinetic study were […]
# [1] = male, Sprague-Dawley, rat, plasma, po, 3.54 g/kg, HL (Huang-Lian) group: rats, oral extract 3.54 g/kg, plasma, read-out: AUClast
# [2] = male, Sprague-Dawley, rat, plasma, po, 16.5 g/kg, GQD-GC group (GQD without Gan-Cao): rats, oral 16.5 g/kg, plasma, read-out: AUClast
# [3] = male, Sprague-Dawley, rat, plasma, po, 18.9 g/kg, GQD group: rats, oral GQD extract 18.9 g/kg, plasma, read-out: AUClast
# [4] = male, Sprague-Dawley, rat, plasma, po, 18.9 g/kg, GQD group: rats, oral GQD 18.9 g/kg (1.5-fold of clinical dosage), plasma, read-out: AUClast
# [5] = male, Sprague-Dawley, rat, GQD group: rats, oral GQD extract 18.9 g/kg, plasma, read-out: Cmax
# [6] = male, Sprague-Dawley, rat, GQD group: rats, oral GQD extract 18.9 g/kg, plasma, read-out: T1/2 (converted)
# [7] = male, Sprague-Dawley, rat, GQD group: rats, oral GQD extract 18.9 g/kg, plasma, read-out: Tmax
# [8] = male, Sprague-Dawley, rat, GQD-GC group (GQD without Gan-Cao): rats, oral 16.5 g/kg, plasma, read-out: Cmax
# [9] = male, Sprague-Dawley, rat, GQD-GC group (GQD without Gan-Cao): rats, oral 16.5 g/kg, plasma, read-out: T1/2 (converted)
# [10] = male, Sprague-Dawley, rat, GQD-GC group (GQD without Gan-Cao): rats, oral 16.5 g/kg, plasma, read-out: Tmax
# [11] = male, Sprague-Dawley, rat, HL (Huang-Lian) group: rats, oral extract 3.54 g/kg, plasma, read-out: Cmax
# [12] = male, Sprague-Dawley, rat, HL (Huang-Lian) group: rats, oral extract 3.54 g/kg, plasma, read-out: T1/2 (converted)
# [13] = male, Sprague-Dawley, rat, HL (Huang-Lian) group: rats, oral extract 3.54 g/kg, plasma, read-out: Tmax
# [14] = male, Sprague-Dawley, rat, in vivo, po, 2.36 g/kg
# [15] = male, Sprague-Dawley, rat, in vivo, po, 18.9 g/kg
# [16] = male, Sprague-Dawley, rat, in vivo, po, 18.9 g/kg, AUClast
# [17] = male, Sprague-Dawley, rat, plasma, po, 2.36 g/kg, GC (Gan-Cao) group: rats, oral extract 2.36 g/kg, plasma, read-out: AUClast
# [18] = male, Sprague-Dawley, rat, GC (Gan-Cao) group: rats, oral extract 2.36 g/kg, plasma, read-out: Cmax
# [19] = male, Sprague-Dawley, rat, GC (Gan-Cao) group: rats, oral extract 2.36 g/kg, plasma, read-out: T1/2 (converted)
# [20] = male, Sprague-Dawley, rat, GC (Gan-Cao) group: rats, oral extract 2.36 g/kg, plasma, read-out: Tmax
# [21] = male, Sprague-Dawley, rat, in vivo, po, 3.54 g/kg
# [22] = male, Sprague-Dawley, rat, in vivo, po, 16.5 g/kg
smiles,measurement,setting,value
"COc1cc2c(cc1O)CC[n+]1cc3c(OC)c(OC)ccc3cc1-2 [Compound 23, jatrorrhizine]",AUC(0-t),[1],119 ± 52.4 ng·h/mL
same,AUC(0-t),"male, Sprague-Dawley, rat, plasma, po, 3.54 g/kg, Huang-Lian group: rats, oral 3.54 g/kg, plasma, read-out: AUClast",119 ± 52.4 ng·h/mL
same,AUC(0-t),[2],105 ± 34.2 ng·h/mL
same,AUC(0-t),"male, Sprague-Dawley, rat, plasma, po, 16.5 g/kg, GQD−GC group: rats, oral 16.5 g/kg, plasma, read-out: AUClast",105 ± 34.2 ng·h/mL
same,AUC(0-t),[3],195 ± 25.7 ng·h/mL
same,AUC(0-t),[4],> 100 ng·h/mL
same,Cmax,[5],8.54 ± 0.05 ng/mL
same,half-life,[6],6.97 ± 1.77 h
same,Tmax,[7],0.72 ± 0.11 h
same,Cmax,[8],9.14 ± 0.82 ng/mL
same,half-life,[9],3.12 ± 0.13 h
same,Tmax,[10],0.63 ± 0.32 h
same,Cmax,[11],6.6 ± 0.59 ng/mL
same,half-life,[12],5.15 ± 1.74 h
same,Tmax,[13],0.61 ± 0.11 h
same,increase of AUClast in GQD group compared with the Huang-Lian group,"rats, oral, GQD vs Huang-Lian",63.6%
"COc1ccc2c(c1O)-c1c(O)c(OC)cc3c1[C@H](C2)[N+](C)(C)CC3 [Compound 19, magnoflorine]",AUC(0-t),[1],556 ± 224 ng·h/mL
same,AUC(0-t),[2],47.3 ± 9.31 ng·h/mL
same,AUC(0-t),[3],198 ± 74.9 ng·h/mL
same,AUC(0-t),[4],> 100 ng·h/mL
same,Cmax,[5],19.7 ± 5.67 ng/mL
same,half-life,[6],8.35 ± 1.26 h
same,Tmax,[7],4.13 ± 1.21 h
same,Cmax,[8],5.21 ± 1.2 ng/mL
same,half-life,[9],4.54 ± 1.43 h
same,Tmax,[10],0.28 ± 0.13 h
same,Cmax,[11],76.4 ± 23.4 ng/mL
same,half-life,[12],10.2 ± 4.34 h
same,Tmax,[13],4.21 ± 3.47 h
"CC1(C(=O)O)CCC2(C)CCC3(C)C(=CC(=O)C4C5(C)CCC(OC6OC(C(=O)O)C(O)C(O)C6OC6OC(C(=O)O)C(O)C(O)C6O)C(C)(CO)C5CCC43C)C2C1 (stereo not shown) [Compound 35, licorice saponin G2]",Cmax,[14],8.98 ± 2.49 ng/mL
same,Tmax,[14],3.7 ± 1.41 h
same,half-life,[14],2.3 ± 6.79 h
same,AUC(0-t),"male, Sprague-Dawley, rat, in vivo, po, 2.36 g/kg, AUClast",81 ± 27.7 ng·h/mL
same,Cmax,[15],10.3 ± 6.38 ng/mL
same,Tmax,[15],3.89 ± 1.41 h
same,half-life,[15],2.53 ± 0.14 h
same,AUC(0-t),[16],102 ± 53.3 ng·h/mL
"COc1ccc(-c2coc3cc(O)ccc3c2=O)cc1 [Compound 32, formononetin]",AUC(0-t),[17],19.9 ± 7.99 ng·h/mL
same,AUC(0-t),[3],94.2 ± 32.6 ng·h/mL
same,Cmax,[18],1.71 ± 1 ng/mL
same,half-life,[19],3.22 ± 0.87 h
same,Tmax,[20],0.33 ± 0.13 h
same,Cmax,[5],8.62 ± 0.39 ng/mL
same,half-life,[6],23.8 ± 16.8 h
same,Tmax,[7],2.92 ± 0.08 h
same,"plasma concentrations, effect of GQD compared with Gan-Cao","rats, oral",improved
"COc1cc2c(cc1OC)-c1cc3ccc(OC)c(OC)c3c[n+]1CC2 [Compound 25, palmatine]",increase of AUClast in GQD group compared with the Huang-Lian group,"male, Sprague-Dawley, rat, in vivo, po",32.7%
same,Cmax,[21],5.96 ± 1.35 ng/mL
same,Tmax,[21],0.25 ± 1.25 h
same,half-life,[21],3.25 ± 2.43 h
same,AUC(0-t),"male, Sprague-Dawley, rat, in vivo, po, 3.54 g/kg, AUClast",51.5 ± 27.8 ng·h/mL
same,Cmax,[22],4.75 ± 10.2 ng/mL
same,Tmax,[22],0.26 ± 0.15 h
same,half-life,[22],3.03 ± 2.36 h
same,AUC(0-t),"male, Sprague-Dawley, rat, in vivo, po, 16.5 g/kg, AUClast",43.4 ± 17 ng·h/mL
same,Cmax,[15],17.1 ± 2.98 ng/mL
same,Tmax,[15],0.17 ± 0.03 h
same,half-life,[15],1.62 ± 1.82 h
same,AUC(0-t),[16],68.3 ± 39.2 ng·h/mL
"COc1cc(-c2coc3c(C4OC(COC5OCC(O)(CO)C5O)C(O)C(O)C4O)c(O)ccc3c2=O)ccc1O (stereo not shown) [Compound 37, 3'-methoxymirificin]",AUC(0-t),"male, Sprague-Dawley, rat, in vivo, po, 9.45 g/kg, GG (Ge-Gen) group: rats, oral extract 9.45 g/kg, plasma, read-out: AUClast",47.4 ± 28.7 ng·h/mL
same,AUC(0-t),"male, Sprague-Dawley, rat, in vivo, po, 16.5 g/kg, GQD-GC group (GQD without Gan-Cao): rats, oral 16.5 g/kg, plasma, read-out: AUClast",42.5 ± 11.3 ng·h/mL
same,AUC(0-t),"male, Sprague-Dawley, rat, in vivo, po, 18.9 g/kg, GQD group: rats, oral GQD extract 18.9 g/kg, plasma, read-out: AUClast",86.3 ± 23.9 ng·h/mL
same,Cmax,"male, Sprague-Dawley, rat, in vivo, GG (Ge-Gen) group: rats, oral extract 9.45 g/kg, plasma, read-out: Cmax",11.6 ± 0.56 ng/mL
same,half-life,"male, Sprague-Dawley, rat, in vivo, GG (Ge-Gen) group: rats, oral extract 9.45 g/kg, plasma, read-out: T1/2 (converted)",1.37 ± 0.19 h
same,Tmax,"male, Sprague-Dawley, rat, in vivo, GG (Ge-Gen) group: rats, oral extract 9.45 g/kg, plasma, read-out: Tmax",0.36 ± 0.74 h
same,Cmax,"male, Sprague-Dawley, rat, in vivo, GQD group: rats, oral GQD extract 18.9 g/kg, plasma, read-out: Cmax",9.94 ± 3.68 ng/mL
same,half-life,"male, Sprague-Dawley, rat, in vivo, GQD group: rats, oral GQD extract 18.9 g/kg, plasma, read-out: T1/2 (converted)",1.04 ± 0.04 h
same,Tmax,"male, Sprague-Dawley, rat, in vivo, GQD group: rats, oral GQD extract 18.9 g/kg, plasma, read-out: Tmax",0.36 ± 0.03 h
same,Cmax,"male, Sprague-Dawley, rat, in vivo, GQD-GC group (GQD without Gan-Cao): rats, oral 16.5 g/kg, plasma, read-out: Cmax",7.22 ± 3.27 ng/mL
same,half-life,"male, Sprague-Dawley, rat, in vivo, GQD-GC group (GQD without Gan-Cao): rats, oral 16.5 g/kg, plasma, read-out: T1/2 (converted)",1.62 ± 0.39 h
same,Tmax,"male, Sprague-Dawley, rat, in vivo, GQD-GC group (GQD without Gan-Cao): rats, oral 16.5 g/kg, plasma, read-out: Tmax",0.35 ± 0.42 h
"O=C(/C=C/c1ccc(O)cc1)c1ccc(O)cc1O [Compound 28, isoliquiritigenin]",AUC(0-t),[17],1.28 ± 0.03 ng·h/mL
same,AUC(0-t),[3],39.2 ± 8.9 ng·h/mL
same,Cmax,[18],1.16 ± 0.52 ng/mL
same,half-life,[19],0.28 ± 0.08 h
same,Tmax,[20],0.41 ± 0.47 h
same,Cmax,[5],2.81 ± 0.87 ng/mL
same,half-life,[6],3.55 ± 0.08 h
same,Tmax,[7],5.33 ± 0.89 h

# Source: article PMC6018403 (Frontiers in Pharmacology, 2018)
